# Like-named read-outs stand apart in the source and are kept apart here.
# What was measured:
# MCF-7 cells = test: MTT cytotoxicity assay, MCF-7; format: cell-based; settings: Homo sapiens
# Method: (§1) Following the published protocol[75]–[77], the cytotoxic effects of the newly synthesized quinazolinones 1–10 were assessed in vitro using the MTT test method on human liver HepG-2, breast MCF-7, colorectal HCT-116 cancer cell lines, and normal diploid cell line WI-38. There were further details in the supplemetary file.
# (§2) The cell lines were obtained from Karolinska Center, Department of Oncology and Pathology, Karolinska Institute and Hospital, Stockholm, Sweden, as follows: human liver HepG-2, breast MCF-7, and colorectal HCT-116 cancer cell lines and human diploid cell line WI-38. Exponentially, cells were placed in 10^4 cells/ well for 24 h, and then fresh medium containing different concentrations of the tested sample. two-fold serial dilution of the tested sample was added using a multichannel pipette. Moreover, all cells were cultivated at 37 °C, 5% CO2 and 95% humidity. Also, incubation of control cells occurred at 37 °C. However, after incubation for 24 h different concentrations of the sample (100, 50, 25, 12.5, 6.25, 3.125, and 1.56 µM) were added, and continued the incubation for 48 h, then, add the crystal violet solution of 1% to each well for 0.5 h to examine viable cells. Rinse the wells using water until no stain. After that, add 30% glacial acetic acid to all wells with shaking plates on a Microplate reader (TECAN, Inc.) to measure the absorbance, using a test wavelength of 490 nm. Besides, compare the treated samples with the control cell. The cytotoxicity was estimated by IC50 in (μM), the concentration that inhibits 50% of growth of cancer cell.
# WI-38 cells = test: MTT cytotoxicity assay, normal WI-38; format: cell-based; settings: Homo sapiens
# Method: . […]. Furthermore, the MTT assay was employed to examine the safety profiles of the cytotoxic activity against the normal human diploid cell line WI-38 (Table 1). […]. They could therefore be considered safe chemotherapeutic agents.
# as §1, §2
# HepG-2 cells = test: MTT cytotoxicity assay, HepG-2; format: cell-based; settings: Homo sapiens
# Method: as §1, §2
# [1] = test system: HepG-2, HCT-116 and MCF-7 cell lines; test: MTT cytotoxicity, all screened cancer cell lines together (SAR summary); format: cell-based, human
# Method: […]. In addition, replacement of acetyl group in 2 with pyrazoline moiety with free N-1 in 7 or bound to thiazole in 9, yielded weak activity.
# as §1, §2
# HCT-116 cells = test: MTT cytotoxicity assay, HCT-116; format: cell-based; settings: Homo sapiens
# Method: as §1, §2
# EGFR = biological target: T1, EGFR (Homo sapiens, UniProt P00533); test: In vitro EGFR inhibition assay; format: biochemical; settings: for IC50: EGFR, read-out: IC50 (mean ± SD)
# T1 construct: purchased Abcam
# VEGFR-2 = biological target: T2, VEGFR-2 (Homo sapiens, UniProt P35968); test: In vitro VEGFR-2 inhibition assay (ELISA kit); format: biochemical; settings: read-out: IC50 (mean ± SD)
# T2 construct: purchased Ray Biotech
# Method: Quinazolinone-based targets 1, 6b, 8a, and 10 were chosen for further evaluation of their in vitro inhibitory activity against EGFR and VEGFR-2 because of their exceptional cytotoxic outcomes, with the goal of clarifying their mode of action. […]. VEGFR-2 assay: the effect of the most promising cytotoxic compounds 1, 6b, 8a, and 10 was evaluated for their in vitro inhibitory activity against Human VEGFR-2 using ELISA kit according to manufacturer's instructions (Ray Biotech). This assay employs an antibody specific for human VEGFR-2 coated on a 96-well plate. Samples and standards were added to the wells and incubated over night at 4 °C with gentle shaking. The wells were washed and biotinylated antibody was added followed by incubation for one hour at room temperature. After washing away unbound biotinylated antibody, HRP conjugated streptavidin was pipetted to the wells and
# incubated at room temperature for 45 min. The wells were then washed; TMB substrate solution was added and incubated for 30 min. The color developed was in proportion to the amount of VEGFR-2 bound. The Stop Solution was added and the intensity of the color was measured at 450 nm. Percent inhibition was calculated by the comparison of compounds treated to control incubations. […]
# [2] = MCF7, MCF-7, MTT assay, read-out: IC50 (mean ± SD)
# [3] = normal WI-38, MTT assay, read-out: IC50 (mean ± SD)
# [4] = HepG2, HepG-2, MTT assay, read-out: IC50 (mean ± SD)
# [5] = HCT-116, MTT assay, read-out: IC50 (mean ± SD)
# [6] = HepG-2, HCT-116 and MCF-7 cell lines
# T2 sequence (P35968 20-1356): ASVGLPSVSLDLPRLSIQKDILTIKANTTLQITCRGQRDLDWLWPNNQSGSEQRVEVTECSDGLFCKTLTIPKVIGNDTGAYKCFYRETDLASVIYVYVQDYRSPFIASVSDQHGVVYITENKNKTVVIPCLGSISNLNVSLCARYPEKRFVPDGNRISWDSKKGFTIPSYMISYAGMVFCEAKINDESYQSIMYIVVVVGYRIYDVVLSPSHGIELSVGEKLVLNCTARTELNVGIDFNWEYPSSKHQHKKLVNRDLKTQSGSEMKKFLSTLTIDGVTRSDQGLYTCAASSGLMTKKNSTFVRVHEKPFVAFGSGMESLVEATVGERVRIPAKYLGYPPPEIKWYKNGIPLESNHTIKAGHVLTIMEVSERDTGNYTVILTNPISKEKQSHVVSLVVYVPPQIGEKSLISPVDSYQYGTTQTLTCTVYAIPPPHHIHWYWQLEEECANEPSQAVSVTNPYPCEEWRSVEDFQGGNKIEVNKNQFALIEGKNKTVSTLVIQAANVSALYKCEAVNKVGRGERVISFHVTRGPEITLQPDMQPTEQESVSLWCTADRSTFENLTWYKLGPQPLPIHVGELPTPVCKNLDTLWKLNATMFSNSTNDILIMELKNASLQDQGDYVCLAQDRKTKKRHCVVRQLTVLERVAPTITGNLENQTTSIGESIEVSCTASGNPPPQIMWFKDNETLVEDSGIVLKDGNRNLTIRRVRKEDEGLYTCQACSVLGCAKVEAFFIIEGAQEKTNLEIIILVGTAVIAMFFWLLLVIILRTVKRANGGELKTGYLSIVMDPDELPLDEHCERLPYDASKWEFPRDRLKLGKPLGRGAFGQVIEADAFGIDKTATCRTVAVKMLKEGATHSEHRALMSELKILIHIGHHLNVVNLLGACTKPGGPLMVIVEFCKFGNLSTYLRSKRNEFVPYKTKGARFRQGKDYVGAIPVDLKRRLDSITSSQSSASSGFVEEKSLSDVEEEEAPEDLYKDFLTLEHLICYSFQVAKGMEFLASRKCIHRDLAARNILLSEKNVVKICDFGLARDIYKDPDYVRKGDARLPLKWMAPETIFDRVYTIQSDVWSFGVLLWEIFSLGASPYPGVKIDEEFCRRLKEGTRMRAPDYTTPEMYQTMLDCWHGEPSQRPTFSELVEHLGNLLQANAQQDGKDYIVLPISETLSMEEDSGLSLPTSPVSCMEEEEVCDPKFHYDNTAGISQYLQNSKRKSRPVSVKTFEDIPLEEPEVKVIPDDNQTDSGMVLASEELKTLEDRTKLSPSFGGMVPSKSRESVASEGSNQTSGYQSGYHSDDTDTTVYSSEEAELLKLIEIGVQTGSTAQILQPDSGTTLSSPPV
# T1 sequence (P00533 25-1210): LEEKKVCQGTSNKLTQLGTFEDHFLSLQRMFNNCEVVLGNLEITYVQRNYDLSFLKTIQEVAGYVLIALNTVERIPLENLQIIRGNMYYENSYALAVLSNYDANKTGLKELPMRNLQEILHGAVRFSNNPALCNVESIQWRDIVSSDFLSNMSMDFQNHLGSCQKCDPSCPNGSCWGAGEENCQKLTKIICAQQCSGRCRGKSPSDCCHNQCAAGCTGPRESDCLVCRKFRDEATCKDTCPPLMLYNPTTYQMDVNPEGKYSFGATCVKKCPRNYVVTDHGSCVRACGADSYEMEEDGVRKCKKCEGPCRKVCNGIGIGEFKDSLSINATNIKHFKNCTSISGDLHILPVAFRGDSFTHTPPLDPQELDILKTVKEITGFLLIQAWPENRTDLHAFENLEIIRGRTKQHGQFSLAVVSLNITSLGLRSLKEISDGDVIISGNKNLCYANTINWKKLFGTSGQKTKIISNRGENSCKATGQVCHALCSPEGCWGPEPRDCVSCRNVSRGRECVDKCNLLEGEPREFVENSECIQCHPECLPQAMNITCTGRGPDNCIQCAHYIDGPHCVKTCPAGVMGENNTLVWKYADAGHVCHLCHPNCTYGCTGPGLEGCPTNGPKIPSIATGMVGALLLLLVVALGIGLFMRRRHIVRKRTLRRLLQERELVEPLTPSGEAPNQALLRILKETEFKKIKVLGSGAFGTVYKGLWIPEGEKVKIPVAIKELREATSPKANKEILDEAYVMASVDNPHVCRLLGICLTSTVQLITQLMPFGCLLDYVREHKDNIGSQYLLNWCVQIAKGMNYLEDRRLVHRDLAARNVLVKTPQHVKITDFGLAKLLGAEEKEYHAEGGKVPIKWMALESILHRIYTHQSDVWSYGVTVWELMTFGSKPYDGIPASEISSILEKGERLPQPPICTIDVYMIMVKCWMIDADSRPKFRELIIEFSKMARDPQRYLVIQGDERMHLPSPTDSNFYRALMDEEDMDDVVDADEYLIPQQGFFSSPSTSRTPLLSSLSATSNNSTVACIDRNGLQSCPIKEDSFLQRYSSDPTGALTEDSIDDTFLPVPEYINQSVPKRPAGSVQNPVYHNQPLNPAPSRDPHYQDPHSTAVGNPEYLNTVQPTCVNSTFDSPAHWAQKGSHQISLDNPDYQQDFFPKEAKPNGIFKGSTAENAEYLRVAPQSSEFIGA
Structure (SMILES),IC50 (MCF-7 cells; [2]) [µM],IC50 (WI-38 cells; [3]) [µM],IC50 (HepG-2 cells; [4]) [µM],cytotoxic activity in words (SAR study) [1],IC50 (HCT-116 cells; [5]) [µM],"cytotoxic activity in words (SAR study) [1, 6]",IC50 (EGFR) [µM],IC50 (VEGFR-2) [µM],"IC50 (MCF-7 cells; MCF7, read-out: IC50 (mean ± SD)) [µM]","IC50 (WI-38 cells; WI-38, read-out: IC50 (mean ± SD)) [µM]","IC50 (HepG-2 cells; HepG2, read-out: IC50 (mean ± SD)) [µM]","IC50 (HCT-116 cells; HCT-116, read-out: IC50 (mean ± SD)) [µM]",selectivity EGFR over VEGFR-2 (EGFR; EGFR versus VEGFR-2)
"CC(=O)c1c(Sc2nc3ccccc3c(=O)n2-c2ccccc2)coc1C [Compound 2, 2-[(4-Acetyl-5-methylfuran-3-yl)thio]-3-phenylquinazolin-4(3H)-one]",54.9 ± 3.2,36.9 ± 2.4,47.8 ± 2.8,Weak activity,78.7 ± 3.7,–,–,–,–,–,–,–,–
"Cc1occ(Sc2nc3ccccc3c(=O)n2-c2ccccc2)c1C(=O)C=Cc1ccco1 [Compound 3d, 2-{{{4-[3-(Furan-2-yl)acryloyl]-5-methylfuran-3-yl}thio}}-3-phenylquinazolin-4(3H)-one]",16 ± 1.3,> 100,18.9 ± 1.4,–,25.9 ± 1.7,–,–,–,–,–,–,–,–
"COc1ccc(-c2cc(-c3c(Sc4nc5ccccc5c(=O)n4-c4ccccc4)coc3C)ncc2C#N)cc1 [Compound 5, 4-(4-Methoxyphenyl)-6-{2-methyl-4-[(4-oxo-3-phenyl-3,4-dihydroquinazolin-2-yl)thio]furan-3-yl}nicotinonitrile]",50 ± 2.8,17.8 ± 1.4,38.5 ± 2.3,–,66.3 ± 3.5,Weak activity,–,–,–,–,–,–,–
"O=C(CCl)Sc1nc2ccccc2c(=O)n1-c1ccccc1 [Compound 1, S-(4-Oxo-3-phenyl-3,4-dihydroquinazolin-2-yl) 2-chloroethanethioate]",10.6 ± 0.9,75.4 ± 3.8,13.2 ± 1.1,Moderate activity,19.6 ± 1.4,–,25.5 ± 1.2,70.2 ± 2.55,–,–,–,–,–
"C#Cc1cccc(Nc2ncnc3cc(OCCOC)c(OCCOC)cc23)c1 [Erlotinib, reference compound]",–,–,–,–,–,–,–,–,4.17 ± 0.2,6.72 ± 0.5,4.5 ± 0.2,5.23 ± 0.3,–
"CCOC(=O)C1C(=O)C=C(c2c(Sc3nc4ccccc4c(=O)n3-c3ccccc3)coc2C)CC1c1ccc(F)cc1 (stereo not shown) [Compound 4, Ethyl 4′-fluoro-5-{2-methyl-4-[(4-oxo-3-phenyl-3,4-dihydroquinazolin-2-yl)thio]furan-3-yl}-3-oxo-1,2,3,6-tetrahydro-[1,1′-biphenyl]-2-carboxylate]",62.1 ± 3.5,44.9 ± 2.7,64.9 ± 3.5,–,87.8 ± 4.3,Weak activity,–,–,–,–,–,–,–
"Cc1occ(Sc2nc3ccccc3c(=O)n2-c2ccccc2)c1C1=NN(c2nc(Cl)cs2)C(c2ccc(Cl)cc2)C1 (stereo not shown) [Compound 9, 2-{{{4-[5-(4-Chlorophenyl)-1-(4-chlorothiazol-2-yl)-4,5-dihydro-1H-pyrazol-3-yl]-5-methylfuran-3-yl}thio}}-3-phenylquinazolin-4(3H)-one]",58 ± 3.4,39.8 ± 2.4,44 ± 2.5,–,74.7 ± 3.9,weak activity,–,–,–,–,–,–,–
"Cc1occ(Sc2nc3ccccc3c(=O)n2-c2ccccc2)c1C1=NN(C(N)=S)C(c2ccc(Cl)cc2)C1 (stereo not shown) [Compound 8a, 5-(4-Chlorophenyl)-3-{2-methyl-4-[(4-oxo-3-phenyl-3,4-dihydroquinazolin-2-yl)thio]furan-3-yl}-4,5-dihydro-1H-pyrazole-1-carbothioamide]",8.29 ± 0.6,63.2 ± 3.3,9.68 ± 0.8,–,57.1 ± 3.3,Excellent activity,8.53 ± 0.25,46.2 ± 1.2,–,–,–,–,–
"Cc1occ(Sc2nc3ccccc3c(=O)n2-c2ccccc2)c1C1=NNC(c2ccc(Cl)cc2)C1 (stereo not shown) [Compound 7, 2-{{{4-[5-(4-Chlorophenyl)-4,5-dihydro-1H-pyrazol-3-yl]-5-methylfuran-3-yl}thio}}-3-phenylquinazolin-4(3H)-one]",45.8 ± 2.5,> 100,27.9 ± 1.9,–,48.9 ± 2.6,weak activity,–,–,–,–,–,–,–
"Cc1occ(Sc2nc3ccccc3c(=O)n2-c2ccccc2)c1C(=O)C=Cc1ccc(F)cc1 [Compound 3b, 2-{{{4-[3-(4-Fluorophenyl)acryloyl]-5-methylfuran-3-yl}thio}}-3-phenylquinazolin-4(3H)-one]",71.1 ± 3.8,28.8 ± 1.9,56 ± 3.2,–,83.3 ± 4.1,–,–,–,–,–,–,–,–
"Cc1occ(Sc2nc3ccccc3c(=O)n2-c2ccccc2)c1C1=NN(C(=S)N=Cc2ccc(C=O)s2)C(c2ccc(F)cc2)C1 (stereo not shown) [Compound 10, 5-(4-Fluorophenyl)-N-[(5-formylthiophen-2-yl)methylene]-3-(2-methyl-4-{[4-oxo-3-phenyl-3,4-dihydroquinazolin-2-yl)thio]furan-3-yl}-4,5-dihydro-1H-pyrazole-1-carbothioamide]",6.49 ± 0.4,35.2 ± 2.2,8.71 ± 0.7,–,11.6 ± 0.9,Excellent activity,0.51 ± 0.04,39.4 ± 1.35,–,–,–,–,substantially more selective for EGFR than VEGFR-2
"Cc1occ(Sc2nc3ccccc3c(=O)n2-c2ccccc2)c1C(=O)C=Cc1ccc(Cl)cc1 [Compound 3a, 2-{{{4-[3-(4-Chlorophenyl)acryloyl]-5-methylfuran-3-yl}thio}}-3-phenylquinazolin-4(3H)-one]",37.9 ± 2.2,68.7 ± 3.6,21.8 ± 1.6,–,34.1 ± 2.1,–,–,–,–,–,–,–,–
Cc1occ(Sc2nc3ccccc3c(=O)n2-c2ccccc2)c1C1=NN(C(N)=S)C(c2ccc(F)cc2)C1 (stereo not shown) [Compound 8b],76.1 ± 3.9,26.9 ± 1.8,81.5 ± 4.2,–,93.4 ± 4.7,Weak activity,–,–,–,–,–,–,–
"Cc1occ(Sc2nc3ccccc3c(=O)n2-c2ccccc2)c1C1CC(c2ccc(F)cc2)Nc2ccccc2N1 (stereo not shown) [Compound 6a, 2-{{{4-[4-(4-Fluorophenyl)-2,3,4,5-tetrahydro-1H-benzo[b][1,4]diazepin-2-yl]-5-methylfuran-3-yl}thio}}-3-phenylquinazolin-4(3H)-one]",33.6 ± 2,85.1 ± 4.2,35.8 ± 2.1,–,52.5 ± 3.1,Weak activity,–,–,–,–,–,–,–
"COc1ccc(C=CC(=O)c2c(Sc3nc4ccccc4c(=O)n3-c3ccccc3)coc2C)cc1 [Compound 3c, 2-{{{4-[3-(4-Methoxyphenyl)acryloyl]-5-methylfuran-3-yl}thio}}-3-phenylquinazolin-4(3H)-one]",23.4 ± 1.6,53.2 ± 2.9,–,–,> 100,–,–,–,–,–,–,–,–

# Reference: PMC12314051, “Design, antiproliferative potency, and in silico studies of novel 5-methylfuran-3-yl)thio)-3-phenylquinazolin-4(3H)-one based derivatives as potential EGFR inhibitors” (Scientific Reports, 2025)
